Reference: patent US20240384268A1, “Oligonucleotides” (Hudson Institute of Medical Research, priority 2021, published 2024)

Molecular target: T1, human TLR7 (Homo sapiens, UniProt Q9NYK1)
T1 construct: HA; host or cells: 293XL-hTLR7-HA (HEK293)
T1 sequence (Q9NYK1 27-1049): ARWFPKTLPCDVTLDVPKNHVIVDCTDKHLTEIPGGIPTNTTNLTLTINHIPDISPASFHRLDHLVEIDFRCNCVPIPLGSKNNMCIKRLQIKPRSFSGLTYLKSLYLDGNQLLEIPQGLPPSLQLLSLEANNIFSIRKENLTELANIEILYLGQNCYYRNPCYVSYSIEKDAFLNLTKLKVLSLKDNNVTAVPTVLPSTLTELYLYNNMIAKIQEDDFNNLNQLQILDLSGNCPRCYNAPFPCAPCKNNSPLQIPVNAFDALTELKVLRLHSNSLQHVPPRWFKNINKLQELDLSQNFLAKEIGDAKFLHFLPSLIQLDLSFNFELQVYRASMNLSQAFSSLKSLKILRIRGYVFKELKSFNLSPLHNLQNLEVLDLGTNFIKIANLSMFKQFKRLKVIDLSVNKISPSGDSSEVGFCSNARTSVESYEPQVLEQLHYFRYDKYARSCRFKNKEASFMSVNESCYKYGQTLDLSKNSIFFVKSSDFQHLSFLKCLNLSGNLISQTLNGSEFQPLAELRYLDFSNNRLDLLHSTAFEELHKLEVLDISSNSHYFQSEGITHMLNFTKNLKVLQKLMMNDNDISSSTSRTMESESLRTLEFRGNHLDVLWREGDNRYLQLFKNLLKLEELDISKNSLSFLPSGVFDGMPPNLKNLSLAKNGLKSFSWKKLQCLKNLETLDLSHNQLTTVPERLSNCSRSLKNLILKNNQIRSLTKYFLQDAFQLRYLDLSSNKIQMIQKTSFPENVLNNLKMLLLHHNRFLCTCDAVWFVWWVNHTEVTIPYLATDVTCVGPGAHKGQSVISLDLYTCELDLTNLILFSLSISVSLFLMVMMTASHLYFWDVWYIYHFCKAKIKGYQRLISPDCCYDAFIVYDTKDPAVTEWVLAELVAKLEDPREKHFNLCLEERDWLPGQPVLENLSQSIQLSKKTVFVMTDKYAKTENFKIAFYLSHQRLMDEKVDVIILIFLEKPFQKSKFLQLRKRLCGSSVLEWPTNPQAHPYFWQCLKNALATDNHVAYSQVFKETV
Test: HEK-TLR7 NF-κB-luciferase reporter, R848 stimulation
Assay type: cell-based
Conditions: averaged NF-κB-Luciferase relative to R848 condition; for TLR7 100 nM: MOE-modified ASO at 100 nM; for TLR7 500 nM: MOE-modified ASO at 500 nM

Sequence	TLR7 100 nM	TLR7 500 nM
GGTCCATACCCAAGGCATCC (antisense; 2'-MOE modified, pattern not given here) [CTNN2B-2446 MOE]	0.364	0.096
GGTGGTCCACAACCCCTTTC (antisense; 2'-MOE modified, pattern not given here) [MB21D1-697 MOE]	0.620	0.097
GGTGGTGGCCACCCATCTCA (antisense; 2'-MOE modified, pattern not given here) [CTNN2B-2479 MOE]	0.480	0.192
GGTGTCCTTGCACGTGGCTT (antisense; 2'-MOE modified, pattern not given here) [EGFR-1016 MOE]	0.358	0.131
GTCCACATCCTGTGGCTCGT (antisense; 2'-MOE modified, pattern not given here) [CAMSAP1-2906 MOE]	0.299	0.119
GTCCTTGCACGTGGCTTCGT (antisense; 2'-MOE modified, pattern not given here) [EGFR-1013 MOE]	0.216	0.088
GTCTTGGCTTCGTGGAGCAG (antisense; 2'-MOE modified, pattern not given here) [MB21D1-520 MOE]	0.372	0.095
GTGTCCTTGCACGTGGCTTC (antisense; 2'-MOE modified, pattern not given here) [EGFR-1015 MOE]	0.377	0.212
GTGTCTTCATCGGCCCTGCC (antisense; 2'-MOE modified, pattern not given here) [CAMSAP1-2113 MOE]	0.371	0.132
TAGGCACTTTGCCTCCTTCT (antisense; 2'-MOE modified, pattern not given here) [EGFR-2859 MOE]	0.455	0.205
TAGTCAAGGGCATATCCTAC (antisense; 2'-MOE modified, pattern not given here) [HPRT-732 MOE]	0.423	0.191
TCAAAGGACTGAGGAAAGGG (antisense; 2'-MOE modified, pattern not given here) [CAMSAP1-6273 MOE]	0.397	0.189
TCCAACACTTCGTGGGGTCC (antisense; 2'-MOE modified, pattern not given here) [HPRT-667 MOE]	0.929	0.578
TCGCACTTCAGTCTGAGCAG (antisense; 2'-MOE modified, pattern not given here) [MB21D1-719 MOE]	0.574	0.241
TGTCCTTGCACGTGGCTTCG (antisense; 2'-MOE modified, pattern not given here) [EGFR-1014 MOE]	0.029	0.057
TGTCTTCATCGGCCCTGCCT (antisense; 2'-MOE modified, pattern not given here) [CAMSAP1-2112 MOE]	0.396	0.185
TGTGATGGCCTCCCATCTCC (antisense; 2'-MOE modified, pattern not given here) [HPRT-332 MOE]	0.312	0.238
TTCTGCAGCTTCCTTGTCCT (antisense; 2'-MOE modified, pattern not given here) [CTNN2B-2136 MOE]	0.183	0.059
TTGCACACTTCGTACCCAAA (antisense; 2'-MOE modified, pattern not given here) [CAMSAP1-4915 MOE]	0.418	0.233
TTGCCATGCTGGCTCGGACT (antisense; 2'-MOE modified, pattern not given here) [CAMSAP1-2584 MOE]	0.445	0.138
TTGGCTCGGCTTGCCTACTT (antisense; 2'-MOE modified, pattern not given here) [CAMSAP1-5594 MOE]	0.523	0.204
